Assay results from patent US20260125346A1, “Isoquinolinone Derivatives and 4H-Quinolizinone Derivatives and Pharmaceutical Compositions Thereof for the Treatment of Disease” (BeOne Medicines I GmbH, priority 2023, published 2026).

Assays:
[1] = biological target: PI3Kα (p110/p85) kinase (wild type, "WT") (Homo sapiens, UniProt P42336); experiment: PI3Kα (p110/p85) kinase ADP-Glo Assay; assay type: biochemical; conditions: 25 uM ATP
Outline: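 IC50 values come from a four-parameter logistic fit of ADP-Glo chemiluminescence, reflecting ADP formed. Enzyme, lipid substrate and […] compound were preincubated 30 min at room temperature, then 25 µM ATP was added for a 120 min reaction in 50 mM HEPES pH7.5, 3 mM MgCl2.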

WT cell line SK-BR-3 [2] = experiment: Cell Proliferation Assay (CellTiter-Glo), SK-BR-3; assay type: cell-based; conditions: Homo sapiens, 72 h; SK-BR-3, 3 days treatment
Method: The SK-BR-3 (ATCC, HTB-30) cell line was obtained from the American Type Culture Collection. Cells were maintained in McCoy' 5A medium (Gibco, REF #16600108) supplemented with 10% Fetal Bovine Serum. Cultures were maintained in a humidified incubator at 37° C. under 5% CO2/95% air.
Cell Proliferation Assay. PI3Kα H1047R mutated cell line T-47D cells and WT cell line SK-BR-3 were seeded at a density of 3×10^3 cells per well in 96 well plate (Xinyou Biotechnology, 062096) in 95 μL of culture medium, overnight. Compounds dissolved in 10 mM stock solutions in DMSO were serially diluted 1:3 in DMSO to generate a 9-point dilution series and plated using an INTEGRA ASSIST Plus pipetting robot. A 20× intermediate compound dilution plate in RPMI1640 medium (200 M starting compound concentration in 2% DMSO) was then prepared. Five μL of intermediate serially diluted compounds were added to the cell plate to final concentrations ranging from […] to 1 nM in 0.1% DMSO. 0.1% DMSO alone was used to establish the maximum signal and medium without cells was for minimum signal. After 3 days treatment, equilibrated the plate and its contents at room temperature for approximately 30 minutes. Added 30 μL CellTiter-Glo® Reagent (Promega, REF #G7571) to each well. Then mixed contents for 5 min on plate shaker to induce cell lysis. Incubated at room temperature for 10 minutes to stabilize luminescent signal. The plates were read on PHERAstar FSX Microplate reader using standard luminescence settings.
Relative IC50 values were determined using luminescence units by calculating percent inhibition with respect to the in-plate “MIN” (medium only) and “MAX” (0.1% DMSO) controls. The data were analyzed using a 4-parameter nonlinear logistic equation (four-parameter logistic concentration-response curve): Y=bottom+[(top−bottom)/1+(X/IC50) slope] • where Y=% inhibition, X=concentration of inhibitor, bottom=minimum value of y attained by curve-fit, top=maximum value of y attained by curve-fit and slope=steepness of curve at the IC50.

WT cell line SK-BR-3 [3] = experiment: Phospho-AKT (Ser473) Inhibition Assay (HTRF), SK-BR-3; assay type: cell-based; conditions: Homo sapiens; SK-BR-3, 1 hour treatment; read-out: p-AKT Inhibition assay (S473) IC50 SK-BR-3
Outline: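 SK-BR-3 (PI3Kα WT) cells seeded overnight in MEM with insulin, then treated 1 h with 11-point 1:3 dilutions (10 μM to 0.1 nM, 0.1% DMSO). Lysates read for phospho-AKT Ser473 by HTRF after 4 h antibody incubation at room temperature. IC50 from 4-parameter fit, % inhibition normalized to DMSO (max) and 10 μM GDC0077 (min).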

[4] = test system: PI3Kα H1047R mutated cell line T-47D; experiment: Phospho-AKT (Ser473) Inhibition Assay (HTRF), T-47D; assay type: cell-based; conditions: for IC50: Homo sapiens, T47D, T-47D, 1 hour treatment, read-out: p-AKT Inhibition assay (S473) IC50 T-47D; for Selectivity: SK-BR-3/T-47D (p-AKT): p-AKT (S473) IC50 ratio
Outline: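 Cells seeded overnight in insulin-supplemented MEM, then treated 1 h with 11-point 1:3 compound dilutions (10 μM to 0.1 nM final, 0.1% DMSO). Lysates assayed for phospho-AKT Ser473 by HTRF; IC50 from 4-parameter logistic fit, normalised to DMSO (max) and 10 μM GDC0077 (min).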

Chain of PI3Kα (p110/p85) kinase (wild type, "WT") (P42336 whole entry): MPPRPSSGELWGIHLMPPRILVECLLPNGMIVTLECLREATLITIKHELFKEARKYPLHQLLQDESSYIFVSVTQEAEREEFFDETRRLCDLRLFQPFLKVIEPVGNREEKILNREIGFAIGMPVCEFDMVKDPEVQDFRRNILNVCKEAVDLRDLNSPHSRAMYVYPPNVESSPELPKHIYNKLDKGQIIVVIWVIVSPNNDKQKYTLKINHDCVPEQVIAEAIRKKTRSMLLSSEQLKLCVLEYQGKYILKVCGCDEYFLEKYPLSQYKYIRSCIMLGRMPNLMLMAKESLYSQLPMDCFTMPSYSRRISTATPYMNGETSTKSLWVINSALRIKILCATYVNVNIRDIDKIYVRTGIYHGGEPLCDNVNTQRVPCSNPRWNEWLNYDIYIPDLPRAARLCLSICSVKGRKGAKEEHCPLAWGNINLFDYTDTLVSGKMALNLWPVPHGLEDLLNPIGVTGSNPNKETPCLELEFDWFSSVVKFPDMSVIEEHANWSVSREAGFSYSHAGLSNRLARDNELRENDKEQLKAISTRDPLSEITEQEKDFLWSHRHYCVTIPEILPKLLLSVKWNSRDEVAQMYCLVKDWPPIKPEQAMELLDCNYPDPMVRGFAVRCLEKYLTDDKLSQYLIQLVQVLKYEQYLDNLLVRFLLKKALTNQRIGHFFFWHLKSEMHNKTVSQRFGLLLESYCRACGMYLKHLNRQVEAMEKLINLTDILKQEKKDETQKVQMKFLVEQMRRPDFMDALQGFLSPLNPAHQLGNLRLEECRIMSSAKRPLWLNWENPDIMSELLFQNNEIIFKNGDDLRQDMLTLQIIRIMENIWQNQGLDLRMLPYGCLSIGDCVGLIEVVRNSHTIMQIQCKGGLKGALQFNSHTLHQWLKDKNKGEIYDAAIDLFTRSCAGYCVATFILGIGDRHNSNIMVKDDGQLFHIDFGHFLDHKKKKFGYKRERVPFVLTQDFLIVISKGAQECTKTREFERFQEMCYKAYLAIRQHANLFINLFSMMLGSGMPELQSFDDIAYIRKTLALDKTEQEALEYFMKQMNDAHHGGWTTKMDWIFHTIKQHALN
Chain of PI3Kα (p110/p85) kinase (wild type, "WT") (P27986 whole entry partner): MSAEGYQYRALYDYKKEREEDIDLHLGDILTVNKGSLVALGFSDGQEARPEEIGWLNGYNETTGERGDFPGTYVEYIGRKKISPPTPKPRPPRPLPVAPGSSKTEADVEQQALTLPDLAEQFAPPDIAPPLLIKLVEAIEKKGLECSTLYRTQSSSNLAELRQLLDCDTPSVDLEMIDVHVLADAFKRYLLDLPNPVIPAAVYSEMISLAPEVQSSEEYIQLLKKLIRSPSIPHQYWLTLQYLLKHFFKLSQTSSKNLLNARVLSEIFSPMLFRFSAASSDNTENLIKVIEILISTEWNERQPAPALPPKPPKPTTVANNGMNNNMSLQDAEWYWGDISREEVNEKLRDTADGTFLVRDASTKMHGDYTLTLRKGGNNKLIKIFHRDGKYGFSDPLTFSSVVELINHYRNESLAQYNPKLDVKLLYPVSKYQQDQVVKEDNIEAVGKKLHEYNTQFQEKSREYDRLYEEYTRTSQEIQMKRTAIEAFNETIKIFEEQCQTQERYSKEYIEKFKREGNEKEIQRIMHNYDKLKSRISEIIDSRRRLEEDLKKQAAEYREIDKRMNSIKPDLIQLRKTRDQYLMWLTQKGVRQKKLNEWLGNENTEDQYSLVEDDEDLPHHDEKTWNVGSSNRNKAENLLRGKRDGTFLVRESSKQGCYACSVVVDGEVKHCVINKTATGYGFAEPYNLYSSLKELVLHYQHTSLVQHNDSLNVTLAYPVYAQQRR

Row | Compound | IC50 [1] [µM] | IC50 (WT cell line SK-BR-3 [2]) [µM] | IC50 (WT cell line SK-BR-3 [3]) [µM] | IC50 [4] [nM] | Selectivity: SK-BR-3/T-47D (p-AKT) [4]
1 | Cc1cc(C(C)Nc2ccccc2C(=O)O)c2cc(-c3ccc4nn(C)cc4n3)n(C)c(=O)c2c1 (centres unmarked) [Example 39, 2-((1-(2,7-dimethyl-3-(2-methyl-2H-pyrazolo[4,3-b]pyridin-5-yl)-1-oxo-1,2-dihydroisoquinolin-5-yl)ethyl)amino)benzoic acid] | 10.6 | > 10 | 6.17 | 1110 | 5.6
2 | Cc1cc(C(C)Nc2ccccc2C(=O)O)c2cc(C3=CCN(c4ccccc4)CC3)n(C)c(=O)c2c1 (centres unmarked) [Example 46, 2-((1-(2,7-dimethyl-1-oxo-3-(1-phenyl-1,2,3,6-tetrahydropyridin-4-yl)-1,2-dihydroisoquinolin-5-yl)ethyl)amino)benzoic acid] | 11.1 | > 10 | 5.07 | 92.4 | 54.8
3 | Cc1cc(C(C)Nc2cc3ccsc3cc2C(=O)O)c2cc(-c3ccccc3)n(C)c(=O)c2c1 (centres unmarked) [Example 47, 5-((1-(2,7-dimethyl-1-oxo-3-phenyl-1,2-dihydroisoquinolin-5-yl)ethyl)amino)benzo[b]thiophene-6-carboxylic acid] | 14.3 | > 10 | > 10 | 57.2 | >175
4 | Cc1cc(C(C)Nc2ccccc2C(=O)O)c2cc(-c3cccc(C(F)(F)F)c3)n(C)c(=O)c2c1 (centres unmarked) [Example 50, 2-((1-(2,7-dimethyl-1-oxo-3-(3-(trifluoromethyl)phenyl)-1,2-dihydroisoquinolin-5-yl)ethyl)amino)benzoic acid] | 10.4 | > 10 | 6.85 | 86.6 | 79.1
5 | Cc1cc(C(C)Nc2ccccc2C(=O)O)c2cc(-c3ccc(C(C)(C)O)cc3)n(C)c(=O)c2c1 (centres unmarked) [Example 51, 2-((1-(3-(4-(2-hydroxypropan-2-yl)phenyl)-2,7-dimethyl-1-oxo-1,2-dihydroisoquinolin-5-yl)ethyl)amino)benzoic acid] | 10.4 | > 10 | 6.45 | 167 | 38.7
6 | Cc1cc(C(C)Nc2ccccc2C(=O)O)c2cc(-c3ccc(C(C)(C)O)nc3)n(C)c(=O)c2c1 (centres unmarked) [Example 55, 2-((1-(3-(6-(2-hydroxypropan-2-yl)pyridin-3-yl)-2,7-dimethyl-1-oxo-1,2-dihydroisoquinolin-5-yl)ethyl)amino)benzoic acid] | 26 | > 10 | > 10 | 1560 | >6.4
7 | Cc1cc([C@@H](C)Nc2ccccc2C(=O)O)c2cc(-c3ccc(C(C)(C)O)nc3)n(C)c(=O)c2c1 [Example 56, (R)-2-((1-(3-(6-(2-hydroxypropan-2-yl)pyridin-3-yl)-2,7-dimethyl-1-oxo-1,2-dihydroisoquinolin-5-yl)ethyl)amino)benzoic acid] | 17.1 | > 10 | > 10 | 512 | >19.55
8 | Cc1cc([C@H](C)Nc2ccccc2C(=O)O)c2cc(-c3ccc(C(C)(C)O)nc3)n(C)c(=O)c2c1 [Example 57, (S)-2-((1-(3-(6-(2-hydroxypropan-2-yl)pyridin-3-yl)-2,7-dimethyl-1-oxo-1,2-dihydroisoquinolin-5-yl)ethyl)amino)benzoic acid] | 88.4 | > 10 | > 10 | > 10000 | 

Compounds with a lower IC50 [1], results first:

Row | IC50 [1] [µM] | IC50 (WT cell line SK-BR-3 [2]) [µM] | IC50 (WT cell line SK-BR-3 [3]) [µM] | IC50 [4] [nM] | Compound | Selectivity: SK-BR-3/T-47D (p-AKT) [4]
9 | 9.99 | > 10 | 3.16 | 220 | COc1ncc(-c2cc3c(C(C)Nc4ccccc4C(=O)O)cc(C)cc3c(=O)n2C)cc1F (centres unmarked) [Example 58, 2-((1-(3-(5-fluoro-6-methoxypyridin-3-yl)-2,7-dimethyl-1-oxo-1,2-dihydroisoquinolin-5-yl)ethyl)amino)benzoic acid] | 14.3
10 | 9.81 | > 10 | > 10 | 285 | Cc1cc(C(C)Nc2ccccc2C(=O)O)c2cc(-c3cncc(F)c3)n(C)c(=O)c2c1 (centres unmarked) [Example 38, 2-((1-(3-(5-fluoropyridin-3-yl)-2,7-dimethyl-1-oxo-1,2-dihydroisoquinolin-5-yl)ethyl)amino)benzoic acid] | >35
11 | 9.53 | > 10 | 4.52 | 89.2 | Cc1cc(C(C)Nc2ccccc2C(=O)O)c2cc(-c3ccc(C(F)(F)F)cc3)n(C)c(=O)c2c1 (centres unmarked) [Example 49, 2-((1-(2,7-dimethyl-1-oxo-3-(4-(trifluoromethyl)phenyl)-1,2-dihydroisoquinolin-5-yl)ethyl)amino)benzoic acid] | 50.7
12 | 9.45 | > 10 | 7.19 | 75.6 | CC#Cc1ccc(-c2cc3c(C(C)Nc4ccccc4C(=O)O)cc(C)cc3c(=O)n2C)cc1 (centres unmarked) [Example 52, 2-((1-(2,7-dimethyl-1-oxo-3-(4-(prop-1-yn-1-yl)phenyl)-1,2-dihydroisoquinolin-5-yl)ethyl)amino)benzoic acid] | 95.1
13 | 7.21 | > 10 | 2.82 | 63.9 | Cc1cc(C(C)Nc2ccccc2C(=O)O)c2cc(C3=Cc4ccccc4CC3)n(C)c(=O)c2c1 (centres unmarked) [Example 45, 2-((1-(3-(3,4-dihydronaphthalen-2-yl)-2,7-dimethyl-1-oxo-1,2-dihydroisoquinolin-5-yl)ethyl)amino)benzoic acid] | 44.0
14 | 5.16 | > 10 | 3.79 | 632 | Cc1cc(C(C)Nc2c(C(=O)O)sc3ccccc23)c2cc(-c3ccccc3)n(C)c(=O)c2c1 (centres unmarked) [Example 48, 3-((1-(2,7-dimethyl-1-oxo-3-phenyl-1,2-dihydroisoquinolin-5-yl)ethyl)amino)benzo[b]thiophene-2-carboxylic acid] | 6.0
15 | 5.12 | > 10 | 0.814 | 24.3 | Cc1cc([C@@H](C)Nc2ccccc2C(=O)O)c2cc(-c3ccc(-c4cnn(C)c4)cc3)n(C)c(=O)c2c1 [Example 40, (R)-2-((1-(2,7-dimethyl-3-(4-(1-methyl-1H-pyrazol-4-yl)phenyl)-1-oxo-1,2-dihydroisoquinolin-5-yl)ethyl)amino)benzoic acid] | 33.5
16 | 4.84 | > 10 | 2.53 | 44.7 | Cc1cc(C(C)Nc2ccccc2C(=O)O)c2cc(-c3ccc4c(c3)C3CC3O4)n(C)c(=O)c2c1 (centres unmarked) [Example 53, 2-((1-(3-(1a,6b-dihydro-1H-cyclopropa[b]benzofuran-5-yl)-2,7-dimethyl-1-oxo-1,2-dihydroisoquinolin-5-yl)ethyl)amino)benzoic acid] | 56.6
17 | 2.36 | > 10 | 1.64 | 408 | Cc1cc(C(C)Nc2ccccc2C(=O)O)c2cc(C#Cc3ccccc3)n(C)c(=O)c2c1 (centres unmarked) [Example 43, 2-((1-(2,7-dimethyl-1-oxo-3-(phenylethynyl)-1,2-dihydroisoquinolin-5-yl)ethyl)amino)benzoic acid] | 4.0
18 | 1.84 | > 10 | 2.13 | 560 | Cc1cc(C(C)Nc2ccccc2C(=O)O)c2cc(/C=C/c3ccccc3)n(C)c(=O)c2c1 (centres unmarked) [Example 44, (E)-2-((1-(2,7-dimethyl-1-oxo-3-styryl-1,2-dihydroisoquinolin-5-yl)ethyl)amino)benzoic acid] | 3.8
